The values that follow come from patent publication US8778886B2, “Methods of making and using a cell penetrating peptide for enhanced delivery of nucleic acids, proteins, drugs, and adenovirus to tissues and cells, and compositions and kits” (Tufts University, priority 2007, dated 2014).

The test system of series [1] is HER cells. The series can be described thus: Membrane permeabilization, propidium iodide uptake after F-POD. The class given is cell-based, human. The settings on record: FACS, F-POD 0.2 to 2.0 μM (average), Triton-X100 1%. How it is done:
HER cells were seeded on Lab Tek-II chamber slides and grown to about 70% confluence. Cells were washed twice with PBS and incubated with […] L-POD for 0, 5, 15, 30, 45, and 60 minutes or 1 nmol Lissamine only for 60 minutes. Cells were fixed for 15 minutes in formalin at room temperature. Cells for live imaging were grown on 24 well plates and incubated with […] of L-POD. Following incubation, cells were washed three times with PBS, incubated in phenol red-free DMEM supplemented with 2% FBS. Cells were visualized by light and fluorescent microscopy using either an Olympus IX51 (live cells) or an Olympus BX51 (fixed cells) with DIC, RFP, and GFP filters. Images were obtained using a Retiga 2000R FAST camera and QCapture Pro 5.0 (QImaging, BC, Canada). To measure L-POD uptake in the presence of trypsin, 0.2×10^6 HER cells were incubated with 2.0 nmole L-POD in media for 15 minutes at 37° C. followed by incubation in 2.5 mg/ml trypsin for 12 minutes at 37° C. For analysis of uptake at 4° C., cells were cooled to 4° C. for 45 minutes prior to the addition of peptide and cold (4° C.) reagents were used for peptide administration. […] The number of PI-positive cells was analyzed by FACS. […] Examples were performed in triplicate and 10,000 events per sample were counted. Results were analyzed using CellQuest Pro software (Becton Dickinson). […]

Another series deals with E. coli. The series can be described thus: Microbicidal activity, colony count after plating. The class given is cell-based. The settings on record: 2 hours at 37° C., plating on LB agar. How it is done:
(§1) Lissamine conjugated POD (L-POD) and either heparan sulfate or chondroitan sulfate were incubated together at each of molar ratios of 1:3.33, 1:6.67, and 1:8 in water for 30 minutes at room temperature. The complex was diluted in DMEM+2% FBS and added to 0.2×]06 HER cells for 5 minutes at 37° C. Following incubation, cells were trypsinized and suspended in PBS for FACS analysis as described above. To measure microbicidal activity of C-POD, XL-1 Blue cells (Stratagene, La Jolla, Calif.) were grown to mid logarithmic phase (OD600=0.600) and washed twice in a solution of 10 mM Tris, pH 7.4 and 5 mM Glucose. The cells were resuspended in 10 mL of the same solution and […] of the suspension was incubated with C-POD in a final volume of 50 μL. The peptide/bacteria cell solution was rocked for 2 hours at 37° C. The peptide-treated bacteria was diluted 1:4500 with LB broth, plated on agar, and grown overnight at 37° C. The following day, the bacterial colonies on each plate were counted to quantify peptide-related reduction in growth.
Since endophthalmitis, an infection within the eye, is regularly a complicating factor in drug delivery to ocular tissues [Ho J et al. 2007 Int Opthalmol Clin 47: 199-208], C-POD was examined for potential microbicidal activities. E. coli cells grown to mid-log phase were incubated with either H20 only or C-POD suspended in H20 at concentrations ranging from 0.03 μM to 60 μM, and cell number was determined by plating samples on LB agar. […] Greater concentrations of C-POD completely eliminated bacterial growth.

Series [2] has as its system Human embryonic retinal (HER) 911 cells. The series can be described thus: L-POD uptake by HER cells (microscopy, lissamine-positive cells by FACS). The class given is cell-based. How it is done: HER cells were seeded on Lab Tek-II chamber slides and grown to about 70% confluence. Cells were washed twice with PBS and incubated with […] L-POD for 0, 5, 15, 30, 45, and 60 minutes or 1 nmol Lissamine only for 60 minutes. Cells were fixed for 15 minutes in formalin at room temperature. Cells for live imaging were grown on 24 well plates and incubated with […] of L-POD. Following incubation, cells were washed three times with PBS, incubated in phenol red-free DMEM supplemented with 2% FBS. Cells were visualized by light and fluorescent microscopy using either an Olympus IX51 (live cells) or an Olympus BX51 (fixed cells) with DIC, RFP, and GFP filters. Images were obtained using a Retiga 2000R FAST camera and QCapture Pro 5.0 (QImaging, BC, Canada). To measure L-POD uptake in the presence of trypsin, 0.2×10^6 HER cells were incubated with 2.0 nmole L-POD in media for 15 minutes at 37° C. followed by incubation in 2.5 mg/ml trypsin for 12 minutes at 37° C. For analysis of uptake at 4° C., cells were cooled to 4° C. for 45 minutes prior to the addition of peptide and cold (4° C.) reagents were used for peptide administration. Following incubation with peptide, cells were washed twice with PBS and spun and resuspended in PBS for FACS analysis. For measurement of membrane permeabilization, HER cells were incubated with 2.0 nmole FITC-HBP for 30 minutes at 37° C., washed twice, isolated, and suspended in PBS with 1 μM PI. The number of PI-positive cells was analyzed by FACS. FACS analysis was performed using a FACSCalibur (Becton Dickinson). Examples were performed in triplicate and 10,000 events per sample were counted. Results were analyzed using CellQuest Pro software (Becton Dickinson).
Human embryonic retinal (HER) 911 cells [Fallaux F J et al. 1996 Hum. Gene Ther. 7: 215-222] incubated with […] (8 μM) lissamine-conjugated POD (L-POD), followed by formalin fixation, became […] to 558 nm excitation (emission measured at 583 nm) within 1 min and appeared normal in bright field (FIG. 1 panel A). Within 5 min, L-POD was seen within the cytoplasm with both a diffuse cytoplasmic and slightly punctate pattern (Figure panel A).
To determine whether L-POD was internalized or was non-specifically associated with the plasma membrane, HER cells incubated with 2 nmoles (8 μM) L-POD for 15 min were treated with trypsin at 37° C. prior to counting of lissamine-positive cells by FACS. […] Sensitivity of POD peptide to trypsin-mediated digestion was confirmed by incubation of […] of C-POD with trypsin prior to loading on an acrylamide gel (inset FIG. 1 panel C). Whereas 92.23±0.65% of HER cells were lissamine-positive when incubated with L-POD at 37° C., only 48.74±2.32% of cells were lissamine-positive when incubated with L-POD at 4° C. (FIG. 1 panel D).
A general note: In flow cytometry, cells or beads pass a laser one at a time.

Series [3] deals with HER cells. As to the kind of experiment: Inhibition of L-POD uptake by proteoglycans. The class given is cell-based, human. How it is done: as §1
To determine whether L-POD uses cell surface proteoglycans for binding and cell entry, L-POD was pre incubated with different amounts of either of the proteoglycans chondroitin sulfate or heparan sulfate, prior to addition to HER cells. Based on data from preliminary studies, ratios of L-POD:proteoglycan of 1:3.33, 1:6.67 and 1:8 were selected.
In contrast, the uptake of a TRITC-conjugated peptide containing an integrin-binding RGD motif was not affected by pre-incubation with either proteoglycan (FIG. 3 panel A).

For another series, the system named is neural retina. As to the kind of experiment: Subretinal / intravitreal delivery of L-POD and QDPOD to retina in vivo. The conditions noted are these: 2 hours. Further details: species or system C57BL/6J mice. How it is done: The use of animals in this work was in accordance with the ARVO Statement for the Use of Animals in Ophthalmic and Vision Research. C57BL/6J mice were purchased from Jackson Laboratories, bred and maintained in a 12-hour light-dark cycle and cared for in accordance with federal, state and local regulations. For each Example herein at least 4 mice (8 eyes) were investigated, yielding roughly similar results. Mice were anesthetized by […] injection of xylazine (10 mg/ml)/ketamine (1 mg/ml). Subretinal or intravitreal injections were performed with a 32 G needle attached to a 5 μl glass syringe (Hamilton) by a trans scleral trans choroidal approach to deliver 0.25 nmole of L-POD per eye. For topical delivery to cornea, male C57BL6/6J mice at 6 weeks of age were anesthetized by intraperitoneal injection of ketamine/xylazine and 10 nmoles of either L-POD or lissamine only were dropped on the cornea and incubated for 45 minutes or 24 hours. Upon completion of the treatment, the animal was sacrificed by CO2 inhalation followed by cervical dislocation and the eyes harvested and washed three times in PBS. Fluorescent and bright field images were taken of each eye using a Nikon C-FMC microscope prior to fixation. Eyes were fixed overnight at 4° C. in 4% paraformaldehyde and embedded in Optimal Cutting Temperature Compound and 14 μm sections were collected using a Microm 550 cryostat. […]

In series [4] the test system is cornea, sclera, optic nerve. The series can be described thus: Topical application of L-POD to whole mouse eye in vivo. Further details: species or system C57BL6/6J mice. The conditions noted are these: for staining of external ocular tissues: topical, 10 nmol, 45 min. How it is done:
The use of animals in this work was in accordance with the ARVO Statement for the Use of Animals in Ophthalmic and Vision Research. C57BL/6J mice were purchased from Jackson Laboratories, bred and maintained in a 12-hour light-dark cycle and cared for in accordance with federal, state and local regulations. For each Example herein at least 4 mice (8 eyes) were investigated, yielding roughly similar results. Mice were anesthetized by […] injection of xylazine (10 mg/ml)/ketamine (1 mg/ml). Subretinal or intravitreal injections were performed with a 32 G needle attached to a 5 μl glass syringe (Hamilton) by a trans scleral trans choroidal approach to deliver 0.25 nmole of L-POD per eye. For topical delivery to cornea, male C57BL6/6J mice at 6 weeks of age were anesthetized by intraperitoneal injection of ketamine/xylazine and 10 nmoles of either L-POD or lissamine only were dropped on the cornea and incubated for 45 minutes or 24 hours. Upon completion of the treatment, the animal was sacrificed by CO2 inhalation followed by cervical dislocation and the eyes harvested and washed three times in PBS. Fluorescent and bright field images were taken of each eye using a Nikon C-FMC microscope prior to fixation. Eyes were fixed overnight at 4° C. in 4% paraformaldehyde and embedded in Optimal Cutting Temperature Compound and 14 μm sections were collected using a Microm 550 cryostat.
To assess penetration of the cornea and sclera with L-POD, whole mouse eye was incubated in vivo with 10 nmol L-POD for 45 min followed by harvesting of ocular tissues.

Residues, ends and D or L forms follow the SMILES beside them. No end group written: not given here. *: point of attachment. FITC = O=C1OC2(c3ccc(O)cc3Oc3cc(O)ccc32)c2ccc(NC(=S)*)cc21

For the molecule `C[C@H](NC(=O)[C@H](CCCCN)NC(=O)[C@H](C)NC(=O)[C@H](C)NC(=O)[C@H](CCCCN)NC(=O)[C@H](CCCCN)NC(=O)[C@H](CCCNC(=N)N)NC(=O)[C@H](C)NC(=O)[C@H](C)NC(=O)[C@H](CCCCN)NC(=O)[C@H](C)NC(=O)[C@H](C)NC(=O)[C@H](CCCCN)NC(=O)[C@H](CCCCN)NC(=O)[C@H](CCCNC(=N)N)NC(=O)[C@H](C)NC(=O)[C@H](C)NC(=O)[C@H](CCCCN)NC(=O)[C@H](C)NC(=O)[C@H](C)NC(=O)[C@H](CCCCN)NC(=O)[C@H](CCCCN)NC(=O)[C@H](CCCNC(=N)N)NC(=O)[C@H](C)NC(=O)[C@H](C)NC(=O)[C@H](CCCCN)NC(=O)[C@H](C)NC(=O)[C@H](C)NC(=O)[C@H](CCCCN)NC(=O)[C@H](CCCCN)NC(=O)[C@H](CCCNC(=N)N)NC(=O)[C@H](C)NC(=O)CNC(=O)CNC(=O)CNC(=S)Nc1ccc2c(c1)C(=O)OC21c2ccc(O)cc2Oc2cc(O)ccc21)C(=O)O` [F-POD] ({FITC}-GGGARKKAAKAARKKAAKAARKKAAKAARKKAAKA-OH), the PI-positive cells in the series with HER cells [1] is on record as 3.98±0.70%.
With GGG(ARKKAAKA)4 [POD], in the series on E. coli, the “concentration giving significant inhibition of bacterial growth” value amounted to 0.3 µM.
For the molecule “L-POD: N terminal lissamine conjugated GGG(ARKKAAKA)4 (SEQ ID NO: 1) (lissamine-GGGARKKAAKAARKKAAKAARKKAAKAARKKAAKA)”, the lissamine-positive cells in series [2] (2 nmoles (8 μM) L-POD 15 min, with incubation with trypsin) was determined as 90.10±1.89%; in series [2] (2 nmoles (8 μM) L-POD 15 min, without incubation with trypsin), 92.23±0.65%; in series [2] (incubated with L-POD at 4° C.), 48.74±2.32%; in series [2] (incubated with L-POD at 37° C.), 92.23±0.65%; with HER cells [3] (without pre incubation with any proteoglycan), 90.07±0.64%. Also, the “time until L-POD was seen within the cytoplasm” value in series [2] (2 nmoles (8 μM) L-POD, formalin fixation) is at most 5 min. For the same molecule, in series [2] (chlorpromazine, genistein, filipin), the “uptake of L-POD in the presence of inhibitors of endocytosis” value is “no significant reduction”. Also, the “uptake of L-POD (lissamine-positive cells)” value with HER cells [3] (chondroitin sulfate, 1:6.67) is on record as 59.43±1.55%; in the series with HER cells [3] (chondroitin sulfate, 1:8) it was 34.38±3.13%; in the series with HER cells [3] (chondroitin sulfate, L-POD:proteoglycan 1:3.33) it was 71.24±1.77%; in the series with HER cells [3] (heparan sulfate, 1:3.33), 78.60±0.35%; with HER cells [3] (heparan sulfate, 1:6.67), 57.78±2.83%; in the series with HER cells [3] (heparan sulfate, 1:8), 44.37±2.17%. The “transduction of neural retina” value is “approximately 85%” with neural retina (intravitreal) and “approximately 40%” with neural retina (subretinal). Also, the “time to reach the optic nerve” value in series [4] (administered topically) is recorded as at most 45 min. Also, the “staining of external ocular tissues” value in series [4] is “bound strongly to the cornea, sclera and unexpectedly, also the optic nerve”.
Triton-X100 [reference compound] came in with a PI-positive cells in the series on HER cells [1] of 91.44±9.66%.
As to lissamine [reference compound], in series [2] (lissamine only, fixed cells), the “uptake by HER cells (microscopy)” value is listed as “no evidence of uptake”. The “staining of external ocular tissues” value in series [4] was “weakly stained the cornea and sclera and did not stain the optic nerve”.
